Data: article PMC7921374, “In vitro antifungal activity of pelgipeptins against human pathogenic fungi and Candida albicans biofilms” (AIMS Microbiology, 2021)
Values after ≈ are worked out from the molar mass of the structure shown. Where a SMILES comes first, the peptide text is derived from it. Bridges are numbered along the chain shown (N, C = ends). [ ]: non-standard residue; d: D form. The star is where a group is joined. X1 = CC[C@H](C)CCCCC(=O)*; Dab = NCC[C@H](N)C(=O)O

Experiments:
Format in all cases: cell-based
[1] = test system: Candida albicans SC 5314 biofilms; test: Inhibition of initial biofilm formation (XTT); conditions: antimicrobial added at same time as yeast inoculum (2 × 10^6 cells/mL), XTT reduction, A490, 80% decrease vs control biofilm, triplicate, at least twice
Procedure: (§1) The effects of the pelgipeptins on C. albicans biofilms were analyzed according to the protocol described by Pierce et al.. Briefly, 2 × 10^6 cells/mL of C. albicans SC 5314 were inoculated on 96-well polystyrene microplates. The inhibition of biofilm formation was also evaluated by adding antimicrobials (lipopeptides, fluconazole, or amphotericin B) at the same time as the yeast inoculum. Furthermore, the inhibition of early-phase biofilms was assessed after 4 hours of yeast growth by removing the planktonic cells and adding the antimicrobials (lipopeptides or amphotericin B). For the investigation of the effects of peptides on mature biofilms, the Candida cells were allowed to grow for 24 h when planktonic cells were removed, and the antimicrobials were added to the culture and incubated for another 24 h at 37 °C.
(§2) The biofilm viability was analyzed by the metabolic assay on the basis of the reduction of 2,3-bis-(2-methoxy-4-nitro-5-sulfophenyl)-2H-tetrazolium-5-carboxanilide (XTT) and absorbance reading at 490 nm. […] The sessile minimal inhibitory concentrations (SMICs) were also determined at 80% (SMIC80) and 50% (SIMIC50) decrease in absorbance at 490 nm in comparison with the control biofilms growing in the absence of the drug, as previously described.

[2] = test system: Candida albicans SC 5314 biofilms; test: Inhibition of early-phase biofilm (XTT); conditions: antimicrobial added after 4 hours of yeast growth, planktonic cells removed, A490, 80% decrease, triplicate, at least twice
Procedure: as §1, §2

[3] = test system: Candida albicans SC 5314 biofilms; test: Inhibition of mature biofilms (XTT); conditions: biofilm grown 24 h, planktonic cells removed, antimicrobial for another 24 h at 37 °C, triplicate, at least twice
Procedure: as §1, §2

Candida albicans SC5314 = test: microbe, parasite or virus in culture; conditions: broth microdilution CLSI M27-A4 modified, RPMI 1640 pH 7.0, 2 × 10^3 cells/mL, 37 °C, complete inhibition of visible growth, triplicates, at least thrice
Procedure: (§3) The isolated pelgipeptin isoforms were tested against the reference clinical strains of Candida albicans SC 5314 (ATCC MYA-2876), Candida glabrata ATCC 90030, Cryptococcus neoformans H99 (ATCC 208821), and Paracoccidioides brasiliensis PB18, a Brazilian clinical isolate. All the isolates were obtained from the mycology collection of the University of Brasilia (Department of Cell Biology). Before each experiment, both Candida spp. strains were grown in Sabouraud's dextrose broth (Himedia) overnight at 30 °C/200 rpm. In addition, the C. neoformans cells were grown in the same conditions for 24 h. P. brasiliensis strains were also grown in GPY medium (2% glucose w/v, 1% peptone w/v, 0.5% yeast extract w/v, and 2% agar w/v), at 37 °C, for 5 days. The fungal cells were collected by centrifugation, washed thrice in phosphate buffered saline (PBS) (NaCl, 137 mM; KCl, 2.7 mM; Na2HPO4, 10 mM; KH2PO4, 2 mM), and inoculated in RPMI 1640 medium (Thermo-Fisher Scientific) supplemented with L-glutamine and buffered to pH 7.0 with 165 mM of 3-(N-morpholino) propanesulfonic acid.
(§4) The in vitro antifungal assays were performed according to the broth microdilution susceptibility test from the Clinical and Laboratory Standards Institute M27-A4 guidelines with modifications. Briefly, the twofold serial dilutions of each pelgipeptin were prepared in 96-well polystyrene microplates to a final volume of 50 µL. Fluconazole, an antifungal employed in the treatment of mycosis caused by Candida spp, Cryptococcus spp, and Paracoccidioides spp, was used as a control (Sigma-Aldrich). We also utilized polymyxin B (Sigma-Aldrich), another bacterial lipopeptide, in our assays due to some works that show its antifungal activity,[28]. The final concentrations of each lipopeptide and control ranged from 1 to 128 µg/mL, and the negative controls without peptide were used to assess fungal growth. Subsequently, 50 µL of the inoculum adjusted on RPMI-1640 medium was added to each well to a final concentration of 2 × 10^3 cells/mL for Candida spp. and 10^4 cells/mL for C. neoformans or P. brasiliensis strains. The microplates were incubated at 37 °C for 24, 48, or 72 h. In addition, the strains of C. neoformans were incubated with shaking at 200 rpm.
(§5) The MICs of the pelgipeptins against P. brasiliensis were determined using the microplate AlamarBlue Cell Viability Assay. This assay uses a resazurin-based solution to indicate cell viability, which was evaluated by fluorometric readings in a fluorescence plate reader with excitation at 550 nm and emission at 585 nm (SpectraMax® M plate reader). The experiments were performed in triplicates at least thrice on separate dates.

[4] = test system: Cryptococcus neoformans H99; test: microbe, parasite or virus in culture; conditions: broth microdilution CLSI M27-A4 modified, RPMI 1640 pH 7.0, 10^4 cells/mL, 37 °C, shaking 200 rpm, lowest concentration completely inhibiting visible growth, triplicates, at least thrice
Procedure: as §3, §4, §5

[5] = test system: Candida glabrata ATCC 90030; test: microbe, parasite or virus in culture; conditions: broth microdilution CLSI M27-A4 modified, RPMI 1640 pH 7.0, 2 × 10^3 cells/mL, 37 °C, complete inhibition of visible growth, triplicates, at least thrice
Procedure: as §3, §4, §5

[6] = test system: Paracoccidioides brasiliensis Pb18; test: microbe, parasite or virus in culture
Procedure: as §3, §4, §5

Structure (SMILES): C[C@@H]1[C@H](O)[C@@H](C)/C=C/C=C/C=C/C=C/C=C/C=C/C=C/[C@H](O[C@@H]2O[C@H](C)[C@@H](O)[C@H](N)[C@@H]2O)C[C@@H]2O[C@](O)(C[C@@H](O)C[C@@H](O)[C@H](O)CC[C@@H](O)C[C@@H](O)CC(=O)O[C@H]1C)C[C@H](O)[C@H]2C(=O)O [Amphotericin B]
- Inhibition of initial biofilm formation SMIC80 [1]: <0.5 µg/mL
- Inhibition of initial biofilm formation SMIC80 ([1]; listed as amphotericin B): lower than 0.5 µg/mL
- Inhibition of early-phase biofilm SMIC80 [2]: <0.5 µg/mL
- Inhibition of early-phase biofilm SMIC80 ([2]; listed as amphotericin B): lower than 0.5 µg/mL
- Inhibition of mature biofilms SMIC50 ([3]; A490, 50% decrease): 0.5 µg/mL
- Inhibition of mature biofilms SMIC80 ([3]; A490, 80% decrease): 4 µg/mL

Structure (SMILES): OC(Cn1cncn1)(Cn1cncn1)c1ccc(F)cc1F [Fluconazole]
- MIC (Candida albicans SC5314; Candida albicans, SC5314): 16 µg/mL (≈ 52.2 µM)
- MIC ([4]; Cryptococcus neoformans, H99): 2 µg/mL (≈ 6.53 µM)
- MIC ([5]; Nakaseomyces glabratus, ATCC90030): 32 µg/mL (≈ 104 µM)
- MIC ([6]; Paracoccidioides brasiliensis, PB18, pH 7, read-out: MIC Paracoccidioides brasiliensis Pb18): 2 µg/mL (≈ 6.53 µM)

Structure (SMILES): CC[C@H](C)CCCCC(=O)N[C@@H](CCN)C(=O)N[C@H](C(=O)N[C@@H](CCN)C(=O)N[C@H]1CCNC(=O)[C@H]([C@@H](C)O)NC(=O)[C@H](CCN)NC(=O)[C@H](CCN)NC(=O)[C@H](CC(C)C)NC(=O)[C@@H](Cc2ccccc2)NC(=O)[C@H](CCN)NC1=O)[C@@H](C)O [Polymyxin B, polymyxin B] (X1-[Dab]T[Dab][Dab][Dab][dF]L[Dab][Dab]T; lactam 4-C (inferred); N-terminus assumed)
- MIC Candida albicans SC5314 (Candida albicans SC5314): 256 µg/mL (≈ 213 µM)
- MIC Cryptococcus neoformans H99 [4]: 8 µg/mL (≈ 6.65 µM)
- MIC Candida glabrata 90030 [5]: 512 µg/mL (≈ 425 µM)
- MIC Paracoccidioides brasiliensis Pb18 ([6]; broth microdilution, RPMI 1640 pH 7.0 (MOPS), 10^4 cells/mL, 37 °C, AlamarBlue fluorescence (ex 550/em 585 nm), triplicates, at least thrice): > 1024 µg/mL
